Tested on: MV-4-11 cells
Assay: Gene expression microarray analysis (Affymetrix PrimeView) and GSEA
Format: cell-based, human
Design: RFU PODN (11730768_x_at) / Fold change /veh PODN (11730768_x_at) / RFU LINC00158 (11744669_a_at) / Fold change /veh LINC00158 (11744669_a_at) / RFU DUSP10 (11751237_a_at) / Fold change /veh DUSP10 (11751237_a_at) / RFU ID3 (11757404_x_at) / Fold change /veh ID3 (11757404_x_at) / RFU PLEKHG5 (11737974_s_at) / Fold change /veh PLEKHG5 (11737974_s_at) / RFU LRRC4B (11730491_at) / Fold change /veh LRRC4B (11730491_at) / RFU GIMAP4 (11747438_a_at) / Fold change /veh GIMAP4 (11747438_a_at) / RFU KRT8 (11758183_x_at) / Fold change /veh KRT8 (11758183_x_at) / RFU CNN1 (11734310_a_at) / Fold change /veh CNN1 (11734310_a_at) / RFU VPS37D (11726825_at) / Fold change /veh VPS37D (11726825_at) / RFU C10orf10 (11716522_x_at) / Fold change /veh C10orf10 (11716522_x_at) / RFU KIR2DL2 /// KIR2DL4 /// KIR2DL5A /// KIR2DL5B /// KIR2DS1 /// KIR2DS2 /// KIR2DS3 /// KIR2DS4 /// KIR3DL3 /// KIR3DL3 /// KIR3DS1 (11738374_at) / Fold change /veh KIR2DL2 /// KIR2DL4 /// KIR2DL5A /// KIR2DL5B /// KIR2DS1 /// KIR2DS2 /// KIR2DS3 /// KIR2DS4 /// KIR3DL3 /// KIR3DL3 /// KIR3DS1 (11738374_at) / RFU C1QL1 (11718748_at) / Fold change /veh C1QL1 (11718748_at) / RFU TMPRSS4 (11747572_a_at) / Fold change /veh TMPRSS4 (11747572_a_at) / RFU HAMP (11756126_x_at) / Fold change /veh HAMP (11756126_x_at) / RFU RNFT2 (11725882_a_at) / Fold change /veh RNFT2 (11725882_a_at) / RFU NR4A2 (11747474_a_at) / Fold change /veh NR4A2 (11747474_a_at) / RFU ABCC12 (11746883_a_at) / Fold change /veh ABCC12 (11746883_a_at) / RFU TMEM136 (11760407_x_at) / Fold change /veh TMEM136 (11760407_x_at) / RFU CLDN22 /// WWC2 (11732394_at) / Fold change /veh CLDN22 /// WWC2 (11732394_at) / RFU HLA-DPB1 (11760878_x_at) / Fold change /veh HLA-DPB1 (11760878_x_at) / RFU SPINT1 (11716480_a_at) / Fold change /veh SPINT1 (11716480_a_at) / RFU GAP43 (11754022_s_at) / Fold change /veh GAP43 (11754022_s_at) / RFU A4GNT (11735810_at) / Fold change /veh A4GNT (11735810_at) / RFU PRB3 (11715151_x_at) / Fold change /veh PRB3 (11715151_x_at) / RFU TUBB4B (11761932_at) / Fold change /veh TUBB4B (11761932_at) / RFU CAPN14 (11732068_a_at) / Fold change /veh CAPN14 (11732068_a_at) / RFU TMCC2 (11721928_a_at) / Fold change /veh TMCC2 (11721928_a_at) / RFU IRGQ (11745062_a_at) / Fold change /veh IRGQ (11745062_a_at) / RFU FAM174B (11720279_a_at) / Fold change /veh FAM174B (11720279_a_at) / RFU TMPRSS4 (11748680_a_at) / Fold change /veh TMPRSS4 (11748680_a_at) / RFU FAM212B (11763350_a_at) / Fold change /veh FAM212B (11763350_a_at) / RFU PLEKHG5 (11743358_a_at) / Fold change /veh PLEKHG5 (11743358_a_at) / RFU ZSCAN30 (11745921_a_at) / Fold change /veh ZSCAN30 (11745921_a_at) / RFU CMKLR1 (11741424_a_at) / Fold change /veh CMKLR1 (11741424_a_at) / RFU LOC101060620 /// MAPK8IP1 (11723275_at) / Fold change /veh LOC101060620 /// MAPK8IP1 (11723275_at) / RFU SPTSSB (11747773_x_at) / Fold change /veh SPTSSB (11747773_x_at) / RFU PRSS12 (11739890_at) / Fold change /veh PRSS12 (11739890_at) / RFU BIN1 (11741810_x_at) / Fold change /veh BIN1 (11741810_x_at) / RFU WNT11 (11732464_a_at) / Fold change /veh WNT11 (11732464_a_at) / RFU C10orf10 (11716521_a_at) / Fold change /veh C10orf10 (11716521_a_at) / RFU C5orf56 (11738089_at) / Fold change /veh C5orf56 (11738089_at) / RFU CYB561 (11721691_x_at) / Fold change /veh CYB561 (11721691_x_at) / RFU ANKRD19P (11752326_a_at) / Fold change /veh ANKRD19P (11752326_a_at) / RFU OR2T12 /// OR2T33 /// OR2T8 (11738714_s_at) / Fold change /veh OR2T12 /// OR2T33 /// OR2T8 (11738714_s_at) / RFU VCAN (11748164_a_at) / Fold change /veh VCAN (11748164_a_at) / RFU JSRP1 (11732532_at) / Fold change /veh JSRP1 (11732532_at) / RFU KRTAP10-11 (11738290_x_at) / Fold change /veh KRTAP10-11 (11738290_x_at) / RFU MYO3A (11730013_a_at) / Fold change /veh MYO3A (11730013_a_at) / RFU EBF3 (11725865_a_at) / Fold change /veh EBF3 (11725865_a_at) / RFU CAMK2N1 (11719241_x_at) / Fold change /veh CAMK2N1 (11719241_x_at) / RFU C5orf56 (11738088_a_at) / Fold change /veh C5orf56 (11738088_a_at) / RFU OLFML3 (11715873_a_at) / Fold change /veh OLFML3 (11715873_a_at) / RFU LOC100653217 /// NTM (11731650_a_at) / Fold change /veh LOC100653217 /// NTM (11731650_a_at) / RFU MAPK11 (11762145_a_at) / Fold change /veh MAPK11 (11762145_a_at) / RFU FIZ1 (11724087_x_at) / Fold change /veh FIZ1 (11724087_x_at) / RFU OASL (11726364_x_at) / Fold change /veh OASL (11726364_x_at) / RFU SOX15 (11748057_x_at) / Fold change /veh SOX15 (11748057_x_at) / RFU CD79A (11719716_a_at) / Fold change /veh CD79A (11719716_a_at) / RFU HIST1H1D (11736915_at) / Fold change /veh HIST1H1D (11736915_at) / RFU CASKIN2 (11723855_a_at) / Fold change /veh CASKIN2 (11723855_a_at) / RFU LOC730098 (11760151_x_at) / Fold change /veh LOC730098 (11760151_x_at) / RFU OR4N2 (11742367_at) / Fold change /veh OR4N2 (11742367_at) / RFU PRRT2 (11749266_a_at) / Fold change /veh PRRT2 (11749266_a_at) / RFU SNX32 (11753110_a_at) / Fold change /veh SNX32 (11753110_a_at) / RFU CDHR5 (11726645_a_at) / Fold change /veh CDHR5 (11726645_a_at) / RFU RCAN1 (11760418_a_at) / Fold change /veh RCAN1 (11760418_a_at) / RFU FAM167A (11723789_a_at) / Fold change /veh FAM167A (11723789_a_at) / RFU FAM26E (11764081_at) / Fold change /veh FAM26E (11764081_at) / RFU ISYNA1 (11749810_s_at) / Fold change /veh ISYNA1 (11749810_s_at) / RFU ACY1 (11761880_at) / Fold change /veh ACY1 (11761880_at) / RFU 11764098_at / Fold change /veh 11764098_at / RFU SAMD14 (11745864_x_at) / Fold change /veh SAMD14 (11745864_x_at) / RFU NPB (11741838_a_at) / Fold change /veh NPB (11741838_a_at) / RFU TMPRSS6 (11731388_a_at) / Fold change /veh TMPRSS6 (11731388_a_at) / RFU KRTAP10-2 (11738614_at) / Fold change /veh KRTAP10-2 (11738614_at) / RFU ARHGAP8 /// PRR5-ARHGAP8 (11727945_x_at) / Fold change /veh ARHGAP8 /// PRR5-ARHGAP8 (11727945_x_at) / RFU KRTAP5-7 /// NADSYN1 (11734609_at) / Fold change /veh KRTAP5-7 /// NADSYN1 (11734609_at) / RFU RASL12 (11751679_a_at) / Fold change /veh RASL12 (11751679_a_at) / RFU CDKN2B (11736163_a_at) / Fold change /veh CDKN2B (11736163_a_at) / RFU PRF1 (11729649_at) / Fold change /veh PRF1 (11729649_at) / RFU, ZNF638 /// ZNF638-IT1 / Fold change vs veh, ZNF638 /// ZNF638-IT1 / RFU, PANK3 / Fold change vs veh, PANK3 / RFU, SH3YL1 / Fold change vs veh, SH3YL1 / RFU, ZEB2 / Fold change vs veh, ZEB2 / RFU, NRIP1 / Fold change vs veh, NRIP1 / RFU, PTTG1IP / Fold change vs veh, PTTG1IP / RFU, CAPN2 / Fold change vs veh, CAPN2 / RFU, MED14 / Fold change vs veh, MED14 / RFU, SNORA58 / Fold change vs veh, SNORA58 / RFU, C1orf63 / Fold change vs veh, C1orf63 / RFU, LRRFIP1 / Fold change vs veh, LRRFIP1 / RFU, NDUFAF7 / Fold change vs veh, NDUFAF7 / RFU, SLC12A2 / Fold change vs veh, SLC12A2 / RFU, IBTK / Fold change vs veh, IBTK / RFU, ESF1 / Fold change vs veh, ESF1 / Fold change vs veh, TMEM50B / RFU, TAOK1 / Fold change vs veh, TAOK1 / RFU, ACBD3 / Fold change vs veh, ACBD3 / RFU, TMA16 / Fold change vs veh, TMA16 / RFU, RWDD3 / Fold change vs veh, RWDD3 / RFU, BCAT1 / Fold change vs veh, BCAT1 / RFU, EDEM3 / Fold change vs veh, EDEM3 / RFU, TMEM33 / Fold change vs veh, TMEM33 / RFU, WDR75 / Fold change vs veh, WDR75 / RFU, AHCTF1 / Fold change vs veh, AHCTF1 / RFU, TFRC / Fold change vs veh, TFRC / RFU, ZDHHC17 / Fold change vs veh, ZDHHC17 / RFU, NOM1 / Fold change vs veh, NOM1 / RFU, ARL8B / Fold change vs veh, ARL8B / RFU, ZBTB11 / Fold change vs veh, ZBTB11 / RFU, TAMM41 / Fold change vs veh, TAMM41 / RFU, KIAA1704 /// LOC100996395 / Fold change vs veh, KIAA1704 /// LOC100996395 / RFU, ING1 / Fold change vs veh, ING1 / RFU, TRMT61B / Fold change vs veh, TRMT61B / RFU, FUBP3 / Fold change vs veh, FUBP3 / RFU, TP53 / Fold change vs veh, TP53 / RFU, TNKS2 / Fold change vs veh, TNKS2 / RFU, ZFP14 / Fold change vs veh, ZFP14 / RFU, ACTR2 / Fold change vs veh, ACTR2 / RFU, PPP3R1 / Fold change vs veh, PPP3R1 / RFU, PIK3R1 / Fold change vs veh, PIK3R1 / RFU, HNRNPA1 / Fold change vs veh, HNRNPA1 / RFU, RNF170 / Fold change vs veh, RNF170 / RFU, ZNF28 / Fold change vs veh, ZNF28 / RFU, RNGTT / Fold change vs veh, RNGTT / RFU, OGT / Fold change vs veh, OGT / RFU, BRD1 / Fold change vs veh, BRD1 / RFU, MARS / Fold change vs veh, MARS / RFU, ZNF655 / Fold change vs veh, ZNF655 / RFU, FAHD1 / Fold change vs veh, FAHD1 / RFU, BDP1 / Fold change vs veh, BDP1 / RFU, LRRCC1 / Fold change vs veh, LRRCC1 / RFU, ARID1A / Fold change vs veh, ARID1A / RFU, ZNF146 / Fold change vs veh, ZNF146 / RFU, ZNF330 / Fold change vs veh, ZNF330 / RFU, GPN3 / Fold change vs veh, GPN3 / RFU, C9orf123 / Fold change vs veh, C9orf123 / RFU, N4BP2L2 / Fold change vs veh, N4BP2L2 / RFU, ARFIP1 / Fold change vs veh, ARFIP1 / RFU, FAM179B / Fold change vs veh, FAM179B / RFU, BCL10 / Fold change vs veh, BCL10 / RFU, UHRF1BP1L / Fold change vs veh, UHRF1BP1L / RFU, BET1 / Fold change vs veh, BET1 / RFU, CNOT2 / Fold change vs veh, CNOT2 / RFU, ZNF268 / Fold change vs veh, ZNF268 / Fold change vs veh, ZNF507 / RFU, DGCR2 / Fold change vs veh, DGCR2 / RFU, WDSUB1 / Fold change vs veh, WDSUB1 / Fold change vs veh, HSP90B1 /// MIR3652 / RFU, ADSS / Fold change vs veh, ADSS / RFU, GK / Fold change vs veh, GK / RFU, ZNF148 / Fold change vs veh, ZNF148 / RFU, TAF9 / Fold change vs veh, TAF9 / RFU, SLC1A5 / Fold change vs veh, SLC1A5 / RFU, SLMO2 / Fold change vs veh, SLMO2 / RFU, ABCC4 / Fold change vs veh, ABCC4 / RFU, LOC101060439 /// RAP1B / Fold change vs veh, LOC101060439 /// RAP1B / RFU, RFX7 / Fold change vs veh, RFX7 / RFU, GTPBP10 / Fold change vs veh, GTPBP10 / RFU, CNEP1R1 / Fold change vs veh, CNEP1R1 / RFU, BIVM-ERCC5 /// ERCC5 / Fold change vs veh, BIVM-ERCC5 /// ERCC5 / RFU, ILF3 / Fold change vs veh, ILF3 / RFU 11762660_at / Fold change /veh 11762660_at / RFU VCAN (11757783_s_at) / Fold change /veh VCAN (11757783_s_at) / RFU DDX43 (11728927_at) / Fold change /veh DDX43 (11728927_at) / RFU KRT8 (11758188_x_at) / Fold change /veh KRT8 (11758188_x_at) / RFU NKD1 (11759106_at) / Fold change /veh NKD1 (11759106_at) / RFU SRD5A1 (11742802_a_at) / Fold change /veh SRD5A1 (11742802_a_at) / RFU TPSAB1 /// TPSB2 (11721975_s_at) / Fold change /veh TPSAB1 /// TPSB2 (11721975_s_at) / RFU GSTM3 (11746129_a_at) / Fold change /veh GSTM3 (11746129_a_at) / RFU IL23R (11737362_x_at) / Fold change /veh IL23R (11737362_x_at) / RFU TMEM51 (11727254_a_at) / Fold change /veh TMEM51 (11727254_a_at) / RFU PIWIL2 (11732686_x_at) / Fold change /veh PIWIL2 (11732686_x_at) / RFU ORM1 (11744905_x_at) / Fold change /veh ORM1 (11744905_x_at) / RFU CCDC152 (11743942_at) / Fold change /veh CCDC152 (11743942_at) / RFU ECM1 (11717891_a_at) / Fold change /veh ECM1 (11717891_a_at) / RFU IL23R (11748794_a_at) / Fold change /veh IL23R (11748794_a_at) / RFU TNFAIP8L3 (11732012_x_at) / Fold change /veh TNFAIP8L3 (11732012_x_at) / RFU MBOAT4 (11741988_at) / Fold change /veh MBOAT4 (11741988_at) / RFU 11764193_at / Fold change /veh 11764193_at / RFU TMEM53 (11763286_at) / Fold change /veh TMEM53 (11763286_at) / RFU MAGEB2 (11727129_at) / Fold change /veh MAGEB2 (11727129_at) / RFU TMEM200A (11744735_a_at) / Fold change /veh TMEM200A (11744735_a_at) / RFU CCDC152 (11751479_a_at) / Fold change /veh CCDC152 (11751479_a_at) / RFU FAM211A (11726209_a_at) / Fold change /veh FAM211A (11726209_a_at) / RFU RGS16 (11746705_a_at) / Fold change /veh RGS16 (11746705_a_at) / RFU VCAN (11755009_s_at) / Fold change /veh VCAN (11755009_s_at) / RFU RHOB (11743442_s_at) / Fold change /veh RHOB (11743442_s_at) / RFU RGS16 (11720943_a_at) / Fold change /veh RGS16 (11720943_a_at) / RFU RGS16 (11720944_at) / Fold change /veh RGS16 (11720944_at) / RFU, VPS4B / Fold change vs veh, VPS4B / RFU, CREB1 / Fold change vs veh, CREB1 / RFU, DNAJC13 / Fold change vs veh, DNAJC13 / RFU, GNAQ / Fold change vs veh, GNAQ / RFU, CDK5R1 / Fold change vs veh, CDK5R1 / RFU, ZRANB3 / Fold change vs veh, ZRANB3 / RFU, CUL4A / Fold change vs veh, CUL4A / RFU, CCNY / Fold change vs veh, CCNY / RFU, UFL1 / Fold change vs veh, UFL1 / RFU, COG3 / Fold change vs veh, COG3 / RFU, DIAPH2 / Fold change vs veh, DIAPH2 / RFU, SKA2 / Fold change vs veh, SKA2 / RFU, AFF3 / Fold change vs veh, AFF3 / RFU, LMF1 / Fold change vs veh, LMF1 / RFU, IPO11 / Fold change vs veh, IPO11 / RFU, DFFB / Fold change vs veh, DFFB / RFU, FOXP1 / Fold change vs veh, FOXP1 / RFU, CARD8 / Fold change vs veh, CARD8 / RFU, STRN3 / Fold change vs veh, STRN3 / RFU, ADK / Fold change vs veh, ADK / RFU, RASSF2 / Fold change vs veh, RASSF2 / RFU, WIPF1 / Fold change vs veh, WIPF1 / RFU, LARP1B / Fold change vs veh, LARP1B / RFU, RASA1 / Fold change vs veh, RASA1 / RFU, RB1 / Fold change vs veh, RB1 / RFU, PPFIA1 / Fold change vs veh, PPFIA1 / RFU, MAT2A / Fold change vs veh, MAT2A / RFU, CCT5 / Fold change vs veh, CCT5 / RFU, WDR92 / Fold change vs veh, WDR92 / RFU, CUX1 / Fold change vs veh, CUX1 / RFU, TTC7A / Fold change vs veh, TTC7A / RFU, TMEM135 / Fold change vs veh, TMEM135 / RFU, DEPTOR / Fold change vs veh, DEPTOR / RFU, CPM / Fold change vs veh, CPM / RFU, DNAJB6 / Fold change vs veh, DNAJB6 / RFU, CACNA2D3 / Fold change vs veh, CACNA2D3 / RFU, DTX4 / Fold change vs veh, DTX4 / RFU, TFCP2 / Fold change vs veh, TFCP2 / RFU, GMCL1 /// GMCL1P1 / Fold change vs veh, GMCL1 /// GMCL1P1 / RFU, AEBP2 / Fold change vs veh, AEBP2 / RFU, SNHG1 /// SNORD22 /// SNORD25 /// SNORD26 /// SNORD27 /// SNORD28 /// SNORD29 /// SNORD31 / Fold change vs veh, SNHG1 /// SNORD22 /// SNORD25 /// SNORD26 /// SNORD27 /// SNORD28 /// SNORD29 /// SNORD31 / Fold change (Aza/veh), C12orf56 (ProbeSet 11735607_a_at) / Fold change (ACY-1035/veh), C12orf56 (ProbeSet 11735607_a_at) / Fold change (Aza/veh), FGFR1OP (ProbeSet 11751329_s_at) / Fold change (ACY-1035/veh), FGFR1OP (ProbeSet 11751329_s_at) / Fold change (Aza/veh), VPS36 (ProbeSet 11739960_a_at) / Fold change (ACY-1035/veh), VPS36 (ProbeSet 11739960_a_at) / RFU SYPL1 (11715823_x_at) / Fold change /veh SYPL1 (11715823_x_at) / RFU IGFBP7 (11715501_s_at) / Fold change /veh IGFBP7 (11715501_s_at) / RFU REEP3 (11722064_at) / Fold change /veh REEP3 (11722064_at) / RFU IGLL1 (11728026_x_at) / Fold change /veh IGLL1 (11728026_x_at): dose or concentration left out as unconfirmed
Conditions: ProbeSet 11732306_x_at; LIST D

**Q.** `Nc1ncn([C@@H]2O[C@H](CO)[C@@H](O)[C@H]2O)c(=O)n1` [azacitidine] was tested. Which “Fold change vs veh, CREB1” value did it give?
**A.** Its value is 0.82.

Source: PMC5218480 (PLoS ONE, 2017)
